# pIC50: −log10 of the molar value. Read-outs that look alike come from different tables or passages of the source.
# Key:
# [1] = test system: A375-XP cells (Vemurafenib-resistant); assay: Dose-response curves and IC50, PrestoBlue cell viability, 72 h; assay type: cell-based, human; conditions: n.e. = did not suppress growth below 50% in the tested concentration range; for pIC50: read-out: Half-maximal inhibitory concentration value (IC50), Mean
# [2] = test system: 501Mel-XP cells (Vemurafenib-resistant); assay: as above; conditions: Homo sapiens, 72 h, read-out: Half-maximal inhibitory concentration (IC50)
# Protocol: (§1) All inhibitors used in this study were purchased from Selleck Chemicals (Houston, USA). They were dissolved in DMSO to a stock concentration of 10 mM according to the manufacturer’s instructions and stored at − 80 °C. […] Cell viability was measured with the PrestoBlue Cell Viability Reagent (ThermoFisher Scientific) on a CLARIOstar Monochromator microplate reader (BMG Labtech). Using the GraphPad Prism v5.04 software, the half-maximal inhibitor concentration values (IC50) were determined from the curve using the nonlinear log (inhibitor) vs response-variable slope (four parameters) equation. […] The IC50’s were determined for 3 biological replicates and are listed with their standard deviations.
# (§2) Values represent the mean of at least three biological replicates; one representative curve of at least 3 biological replicates is depicted. _XP: cells resistant to Vemurafenib (red), _GP: cells resistant to Dabrafenib (green).
# [3] = test system: IGR37-GP cells (Dabrafenib-resistant); assay: as above; conditions: Homo sapiens, 72 h, read-out: Half-maximal inhibitory concentration (IC50)
# [4] = test system: A375-GP cells (Dabrafenib-resistant); assay: as above; assay type: cell-based, human; conditions: n.e. = did not suppress growth below 50% in the tested concentration range; for pIC50: read-out: Half-maximal inhibitory concentration value (IC50), Mean
# A375 cells (parental) [5] = assay: as above; assay type: cell-based, human; conditions: for pIC50: read-out: Half-maximal inhibitory concentration value (IC50), Mean
# [6] = test system: IGR37-XP cells (Vemurafenib-resistant); assay: as above; conditions: Homo sapiens, 72 h, read-out: Half-maximal inhibitory concentration (IC50)
# Protocol: as §1, §2
# 501Mel cells (parental) [7] = assay: as above; conditions: Homo sapiens, 72 h, read-out: Half-maximal inhibitory concentration (IC50)
# Protocol: as §1, §2
# [8] = test system: 501Mel-GP cells (Dabrafenib-resistant); assay: as above; conditions: Homo sapiens, 72 h, read-out: Half-maximal inhibitory concentration (IC50)
# Protocol: as §1
# IGR37 cells (parental) [9] = assay: as above; conditions: Homo sapiens, IGR-37, 72 h, read-out: Half-maximal inhibitory concentration (IC50)
# Protocol: as §1, §2
# A375 cells = assay: Synergy determination with the Chou-Talalay method (CompuSyn), cell viability 72 h; assay type: cell-based, human; conditions: 72 h cell viability, Chou-Talalay / Synergyfinder
# Protocol: The Chou-Talalay method to determine possible synergistic effects of selected kinase inhibitor combinations was used as described in [19]. […] Cells were treated with either single inhibitors or combinations thereof at indicated amounts in technical triplicates. The amounts were pre-determined from each inhibitor’s IC50 value and inhibitors were assayed in a defined dilution series and at constant ratio when combined. […] Combination Index (CI) values showing either synergy (< 1) or antagonism (> 1) were calculated with the CompuSyn software (ComboSyn, Inc).
# [10] = test system: IGR37-XP cells (Vemurafenib-resistant); assay: Kinase inhibitor library screening, PrestoBlue cell viability, 1 or 10 μM, 72 h; conditions: IGR37 XP, 72 h
# A375 cells (parental) [11] = assay: as above; conditions: A375 Parental, 72 h
# IGR37 cells (parental) [12] = assay: as above; conditions: IGR37 Parental, 72 h, in %
# [13] = test system: IGR37-GP cells (Dabrafenib-resistant); assay: as above; conditions: IGR37 GP, 72 h
# [14] = test system: A375-GP cells (Dabrafenib-resistant); assay: as above; conditions: A375 GP, 72 h
# [15] = test system: 501Mel-XP cells (Vemurafenib-resistant); assay: as above; conditions: 501Mel XP, 72 h, in %
# 501Mel cells (parental) [16] = assay: as above; conditions: 501Mel Parental, 72 h, in %
# In short: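 Sensitive parental cells and their resistant derivatives were exposed to library compounds for 72 h. Values represent viability as a percentage of untreated cells.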
# [17] = test system: A375-XP cells (Vemurafenib-resistant); assay: as above; conditions: A375 XP, 72 h
# [18] = test system: 501Mel-GP cells (Dabrafenib-resistant); assay: as above; conditions: 501Mel GP, 72 h, in %
# [19] = Homo sapiens, A-375, n.e. = did not suppress growth below 50% in the tested concentration range
# [20] = n.e. = did not suppress growth below 50% in the tested concentration range
smiles,measurement,setting,value
NC1(c2ccc(-c3nc4ccn5c(=O)[nH]nc5c4cc3-c3ccccc3)cc2)CCC1 [MK-2206],pIC50,[1]; Homo sapiens,5.47
same,pIC50,[2],5.65
same,pIC50,[3],5.33
same,pIC50,[4]; Homo sapiens,5.19
same,pIC50,A375 cells (parental) [5]; [19],5.11
same,pIC50,[6],5.29
same,pIC50,501Mel cells (parental) [7],5.34
same,pIC50,[8],5.36
same,pIC50,IGR37 cells (parental) [9],5.32
"Cc1ccc([N+](=O)[O-])cc1S(=O)(=O)N(C)/N=C/c1cnc2ccc(Br)cn12 [PIK-75, reference compound]",pIC50,[1],7.28
same,pIC50,[4],7.35
same,synergistic effects with the BRAF inhibitors Vemurafenib and/or Dabrafenib (in words),A375 cells,synergistic effects only with Dabrafenib
same,"Cell viability in kinase inhibitor library screening, IGR37 XP, 10μΜ",[10]; 10μΜ,0.7%
same,"Cell viability in kinase inhibitor library screening, IGR37 XP, 1μΜ","[10]; 1μΜ, in %",1.2
same,"Cell viability in kinase inhibitor library screening, A375 Parental, 10μΜ",A375 cells (parental) [11]; 10μΜ,1.8
same,"Cell viability in kinase inhibitor library screening, A375 Parental, 1μΜ",A375 cells (parental) [11]; 1μΜ,4.1
same,"Cell viability in kinase inhibitor library screening, IGR37 Parental, 1μΜ",IGR37 cells (parental) [12]; 1μΜ,1.2
same,"Cell viability in kinase inhibitor library screening, IGR37 Parental, 10μΜ",IGR37 cells (parental) [12]; 10μΜ,0.6
same,"Cell viability in kinase inhibitor library screening, IGR37 GP, 10μΜ",[13]; 10μΜ,1.1%
same,"Cell viability in kinase inhibitor library screening, IGR37 GP, 1μΜ","[13]; 1μΜ, in %",1.7
same,"Cell viability in kinase inhibitor library screening, A375 GP, 1μΜ",[14]; 1μΜ,4.0
same,"Cell viability in kinase inhibitor library screening, A375 GP, 10μΜ",[14]; 10μΜ,1.2
same,"Cell viability in kinase inhibitor library screening, 501Mel XP, 1μΜ",[15]; 1μΜ,-0.0746
same,"Cell viability in kinase inhibitor library screening, 501Mel XP, 10μΜ",[15]; 10μΜ,-0.125
same,"Cell viability in kinase inhibitor library screening, 501Mel Parental, 1μΜ",501Mel cells (parental) [16]; 1μΜ,0.758
same,"Cell viability in kinase inhibitor library screening, 501Mel Parental, 10μΜ",501Mel cells (parental) [16]; 10μΜ,0.0735
same,"Cell viability in kinase inhibitor library screening, A375 XP, 1μΜ",[17]; 1μΜ,5.1
same,"Cell viability in kinase inhibitor library screening, A375 XP, 10μΜ",[17]; 10μΜ,2.3
same,"Cell viability in kinase inhibitor library screening, 501Mel GP, 1μΜ",[18]; 1μΜ,0.164
same,"Cell viability in kinase inhibitor library screening, 501Mel GP, 10μΜ",[18]; 10μΜ,0.3
same,pIC50,A375 cells (parental) [5]; [20],7.26
CNC(=O)c1cc(Oc2ccc(NC(=O)Nc3ccc(Cl)c(C(F)(F)F)c3)cc2)ccn1 [Sorafenib],pIC50,[1]; Homo sapiens,5.34
same,pIC50,[2],5.27
same,pIC50,[3],5.02
same,pIC50,[4]; Homo sapiens,5.60
same,pIC50,A375 cells (parental) [5]; [19],5.29
same,pIC50,[6],5.00
same,pIC50,501Mel cells (parental) [7],5.15
same,pIC50,[8],5.16
same,pIC50,IGR37 cells (parental) [9],5.14
CO[C@H]1C[C@@H]2CC[C@@H](C)[C@@](O)(O2)C(=O)C(=O)N2CCCC[C@H]2C(=O)O[C@H]([C@H](C)C[C@@H]2CC[C@@H](OC(=O)C(C)(CO)CO)[C@H](OC)C2)CC(=O)[C@H](C)/C=C(\C)[C@@H](O)[C@@H](OC)C(=O)[C@H](C)C[C@H](C)/C=C/C=C/C=C/1C [Temsirolimus],"Half-maximal inhibitory concentration value (IC50), Mean",[1],n.e.
same,pIC50,[3],5.02
same,"Half-maximal inhibitory concentration value (IC50), Mean",[4],n.e.
same,"Half-maximal inhibitory concentration value (IC50), Mean",A375 cells (parental) [5]; [20],n.e.
same,pIC50,[6],5.16
O=C(O)c1ccc2c(c1)nc(Nc1cccc(Cl)c1)c1ccncc12 [cx-4945],pIC50,[1]; Homo sapiens,5.28
same,pIC50,[2],5.33
same,pIC50,[3],5.04
same,pIC50,[4]; Homo sapiens,5.27
same,pIC50,A375 cells (parental) [5]; [19],5.25
same,pIC50,[6],5.21
same,pIC50,501Mel cells (parental) [7],5.14
same,pIC50,[8],5.31
same,pIC50,IGR37 cells (parental) [9],5.18
